Values quoted from earlier work, collected in patent US20060239954A1, “Antimicrobial spray for use on pets” (priority 2005, published 2006).

Assays:
Conditions in all cases: 0.1% aqueous solution
[1] = test system: Staphylococcus aureus
[2] = test system: Escherichia coli
[3] = test system: Pseudomonas aeruginosa

N=C(NCCCCCCNC(=N)NC(=N)Nc1ccc(Cl)cc1)NC(=N)Nc1ccc(Cl)cc1.O=C(O)[C@H](O)[C@@H](O)[C@H](O)[C@H](O)CO.O=C(O)[C@H](O)[C@@H](O)[C@H](O)[C@H](O)CO [Chlorhexidine gluconate, chlorhexidine gluconate]
bactericidal: bactericidal against Staphylococcus aureus [1] | bactericidal against Escherichia coli [2] | bactericidal against Pseudomonas aeruginosa [3]
